# In paper PMC8359378 (British Journal of Clinical Pharmacology, 2021):
# Marks after values point to notes of the source that are not given here.
# Key:
# [1] = plasma pharmacokinetics in first‐in‐human study; format: in vivo; conditions: for Tmax: human, plasma
# [2] = test system: monkey arteriovenous shunt model; conditions: preclinical; cited from earlier work
# [3] = test system: activated partial thromboplastin time (aPTT); assay: activated partial thromboplastin time; format: in vivo, human
# [4] = test system: healthy subjects; assay: safety and tolerability; format: in vivo, human; conditions: Part A; for Abdominal pain upper TEAE, subjects / All TEAEs, subjects / Dizziness TEAE, subjects / Gonorrhoea TEAE, subjects / Headache TEAE, subjects / Lethargy TEAE, subjects / Nasopharyngitis TEAE, subjects / Nausea TEAE, subjects / Pain TEAE, subjects / Skin laceration TEAE, subjects / Thrombocytopenia TEAE, subjects: fasted
# [5] = Part A, single dose 5 mg, fasted
# [6] = Part A, single dose 20 mg, fasted
# [7] = Part A, single dose 80 mg, fasted
# [8] = Part A, single dose 150 mg, fasted
smiles,measurement,setting,value
Nc1ccc(-c2nc([C@H]3CCc4cc(-c5cc(Cl)ccc5-n5cnnn5)cc(=O)n43)c(F)[nH]2)c(F)n1 [ONO‐7684],time of peak mean plasma concentration post‐dose,"[1]; Part A, 80 mg fed cohort",approximately 8 hours
same,fold increase of AUCinf with a 300‐fold increase in dose,"[1]; Part A, 1–300 mg",~416 fold
same,fold increase of Cmax with a 300‐fold increase in dose,"[1]; Part A, 1–300 mg",about 308 fold
same,time of peak mean plasma concentration post‐dose,"[1]; Part A, each cohort except 80 mg fed",approximately 4 hours
same,AUC24 accumulation GM ratio Day 14 versus Day 1,"[1]; Part B, 80 mg QD",2.33
same,Cmax accumulation GM ratio Day 14 versus Day 1,"[1]; Part B, 80 mg QD",1.88
same,AUC24 accumulation GM ratio Day 14 versus Day 1,"[1]; Part B, 150 mg QD",2.22
same,Cmax accumulation GM ratio Day 14 versus Day 1,"[1]; Part B, 150 mg QD",1.90
same,AUC24 accumulation GM ratio Day 14 versus Day 1,"[1]; Part B, 250 mg QD",2.41
same,Cmax accumulation GM ratio Day 14 versus Day 1,"[1]; Part B, 250 mg QD",2.09
same,fold increase of AUC24 with a 3.1‐fold increase in dose,"[1]; Part B, 80–250 mg QD, Day 14",approximately 3.6 fold
same,fold increase of Cmax with a 3.1‐fold increase in dose,"[1]; Part B, 80–250 mg QD, Day 14",approximately 3.6 fold
same,time for plasma concentrations to decrease to baseline levels,"[1]; Part B, after final dose on Day 14",≤ 72 h
same,time to reach steady state,"[1]; Part B, daily dosing",≤ 6 days
same,Tmax,"[1]; oral, median range across cohorts, Part A, fasted cohorts",2.5 to 4 h
same,Tmax,"[1]; oral, median range across cohorts, Part B, Day 1",2.5 to 4 h
same,Tmax,"[1]; oral, median range across cohorts, Part B, Day 14",4 to 4.01 h
same,Tmax,"[1]; po, 1 mg, median (range), Part A, single dose 1 mg, fasted",2.5 h
same,Tmax,"[1]; po, 5 mg, median (range), Part A, single dose 5 mg, fasted",3.5 h
same,Tmax,"[1]; po, 80 mg, median (range), Part A, single dose 80 mg, fed",7.05 h
same,Tmax,"[1]; po, 80 mg, median (range), Part B, 80 mg QD fed, Day 1",2.5 h
same,Tmax,"[1]; po, 80 mg, median (range), Part B, 80 mg QD fed, Day 14",4.01 h
same,Tmax,"[1]; po, 150 mg, median (range), Part B, 150 mg QD fed, Day 1",4 h
same,Tmax,"[1]; po, 150 mg, median (range), Part B, 150 mg QD fed, Day 14",4.01 h
same,Tmax,"[1]; po, 250 mg, median (range), Part B, 250 mg QD fed, Day 1",4 h
same,Tmax,"[1]; po, 250 mg, median (range), Part B, 250 mg QD fed, Day 14",4 h
same,thrombus formation,[2],significantly inhibited thrombus formation
same,time of maximal prolongation of aPTT post‐dose,"[3]; Part A, 80 mg fed group",approximately 8 hours
same,"aPTT Day 1 24 hours RTB, mean ± SD","[3]; Part A, single dose 1 mg, fasted",1.00 ± 0.034
same,"aPTT Day 1 24 hours RTB, mean ± SD",[3]; [5],1.10 ± 0.061
same,"aPTT Maximum on treatment RTB, mean ± SD",[3]; [5],1.18 ± 0.054
same,"aPTT Day 1 24 hours RTB, mean ± SD",[3]; [6],1.15 ± 0.119
same,"aPTT Maximum on treatment RTB, mean ± SD",[3]; [6],1.40 ± 0.016
same,"aPTT Day 1 24 hours RTB, mean ± SD",[3]; [7],1.54 ± 0.111
same,"aPTT Maximum on treatment RTB, mean ± SD",[3]; [7],1.83 ± 0.172
same,"aPTT Day 1 24 hours RTB, mean ± SD","[3]; Part A, single dose 80 mg, fed",1.61 ± 0.128
same,"aPTT Maximum on treatment RTB, mean ± SD","[3]; Part A, single dose 80 mg, fed",1.74 ± 0.163
same,"aPTT Day 1 24 hours RTB, mean ± SD",[3]; [8],1.63 ± 0.031
same,"aPTT Maximum on treatment RTB, mean ± SD",[3]; [8],1.97 ± 0.078
same,"aPTT Day 1 24 hours RTB, mean ± SD","[3]; Part A, single dose 300 mg, fasted",1.99 ± 0.139
same,time of maximal prolongation of aPTT post‐dose,"[3]; Part A, single dose of 20–300 mg",approximately 4 hours
same,"aPTT Maximum on treatment RTB, mean ± SD","[3]; Part B, 80 mg QD for 14 days, fed",2.07 ± 0.152
same,"aPTT Day 1 24 hours RTB, mean ± SD","[3]; Part B, 80 mg QD, fed",1.53 ± 0.119
same,"aPTT Day 14 24 hours RTB, mean ± SD","[3]; Part B, 80 mg QD, fed",1.87 ± 0.163
same,"aPTT Maximum on treatment RTB, mean ± SD","[3]; Part B, 150 mg QD for 14 days, fed",2.35 ± 0.275
same,"aPTT Day 1 24 hours RTB, mean ± SD","[3]; Part B, 150 mg QD, fed",1.78 ± 0.174
same,"aPTT Day 14 24 hours RTB, mean ± SD","[3]; Part B, 150 mg QD, fed",2.06 ± 0.261
same,"aPTT Day 1 24 hours RTB, mean ± SD","[3]; Part B, 250 mg QD, fed",2.06 ± 0.091
same,"aPTT Day 14 24 hours RTB, mean ± SD","[3]; Part B, 250 mg QD, fed",2.53 ± 0.146
same,time of maximal aPTT prolongation post‐dose,"[3]; Part B, first dose of 80, 150 and 250 mg",approximately 4 hours
same,"treatment‐related TEAE of lethargy (mild), subjects",[4]; 5 mg group,16.7%
same,"treatment‐related TEAE of headache (moderate), subjects",[4]; 300 mg group,16.7%
same,"Abdominal pain upper TEAE, subjects",[4]; single dose 1 mg,0 n (%)
same,"All TEAEs, subjects",[4]; single dose 1 mg,0 n (%)
same,"Dizziness TEAE, subjects",[4]; single dose 1 mg,0 n (%)
same,"Gonorrhoea TEAE, subjects",[4]; single dose 1 mg,0 n (%)
same,"Headache TEAE, subjects",[4]; single dose 1 mg,0 n (%)
same,"Lethargy TEAE, subjects",[4]; single dose 1 mg,0 n (%)
same,"Nasopharyngitis TEAE, subjects",[4]; single dose 1 mg,0 n (%)
same,"Nausea TEAE, subjects",[4]; single dose 1 mg,0 n (%)
same,"Pain TEAE, subjects",[4]; single dose 1 mg,0 n (%)
same,"Skin laceration TEAE, subjects",[4]; single dose 1 mg,0 n (%)
same,"Thrombocytopenia TEAE, subjects",[4]; single dose 1 mg,0 n (%)
same,"Abdominal pain upper TEAE, subjects",[4]; single dose 5 mg,0 n (%)
same,"All TEAEs, subjects",[4]; single dose 5 mg,1 (16.7) n (%)
same,"Dizziness TEAE, subjects",[4]; single dose 5 mg,0 n (%)
same,"Gonorrhoea TEAE, subjects",[4]; single dose 5 mg,0 n (%)
same,"Headache TEAE, subjects",[4]; single dose 5 mg,0 n (%)
same,"Lethargy TEAE, subjects",[4]; single dose 5 mg,1 (16.7)^b n (%)
same,"Nasopharyngitis TEAE, subjects",[4]; single dose 5 mg,1 (16.7) n (%)
same,"Nausea TEAE, subjects",[4]; single dose 5 mg,0 n (%)
same,"Pain TEAE, subjects",[4]; single dose 5 mg,0 n (%)
same,"Skin laceration TEAE, subjects",[4]; single dose 5 mg,0 n (%)
same,"Thrombocytopenia TEAE, subjects",[4]; single dose 5 mg,0 n (%)
same,"Abdominal pain upper TEAE, subjects",[4]; single dose 20 mg,1 (16.7) n (%)
same,"All TEAEs, subjects",[4]; single dose 20 mg,1 (16.7) n (%)
